For seven compounds, mutagenic call results are on record in PubChem BioAssay AID1259407 (Chemical Carcinogenesis Research Information System (CCRIS), 2018).

SMILES strings stand for the structures. Calls of active or inactive are those of the source. The rule behind the calls is not given here.

In this data set the test system is CCRIS mutagenicity, Ames/micronucleus/aberration tests. Nature of the data set: CCRIS mutagenicity studies.
[1] abbreviates: Test System: AMES SALMONELLA TYPHIMURIUM, Strain/Indicator: TA100, Metabolic Activation: RAT, LIVER, S-9, AROCLOR 1254, Method: STANDARD PLATE.
Where [2] appears, read: Test System: AMES SALMONELLA TYPHIMURIUM, Strain/Indicator: TA100, Metabolic Activation: RAT, LIVER, S-9, PHENOBARBITAL, Method: STANDARD PLATE.
Setting [3] is: Test System: AMES SALMONELLA TYPHIMURIUM, Strain/Indicator: TA98, Metabolic Activation: NONE, Method: STANDARD PLATE.
The mark [4] stands for this setting: Test System: AMES SALMONELLA TYPHIMURIUM, Strain/Indicator: TA98, Metabolic Activation: RAT, LIVER, S-9, AROCLOR 1254, Method: STANDARD PLATE.
Setting [5] is: Test System: AMES SALMONELLA TYPHIMURIUM, Strain/Indicator: TA100, Metabolic Activation: NONE, Method: STANDARD PLATE.

Regarding `Cl/C=C(\Cl)COCCCl`, the mutagenic call (Test System: AMES SALMONELLA TYPHIMURIUM, Strain/Indicator: TA100, Metabolic Activation: RAT, LIVER, S-9, 3-METHYLCHOLANTHRENE, Method: STANDARD PLATE) was “inactive; negative”; the mutagenic call under setting [1] is “active; positive”; the mutagenic call under setting [2] was “active; positive”; the mutagenic call (Test System: AMES SALMONELLA TYPHIMURIUM, Strain/Indicator: TA100, Metabolic Activation: RAT, LIVER, S-9, Method: STANDARD PLATE) is “inactive; negative”.

In the case of `Nc1ccn([C@@H]2O[C@H](CO)[C@@H](O)C2(F)F)c(=O)n1`, the mutagenic call by setting is: (End Point: CHROMOSOMAL ABERRATIONS, Test System: BONE MARROW, Species: MOUSE, Strain/Sex: SWISS/MALE, FEMALE, Route: INTRAPERITONEAL) “active; positive (structural changes)”; (End Point: IN VITRO CHROMOSOMAL ABERRATIONS, Test System: HUMAN PERIPHERAL LYMPHOCYTES, Metabolic Activation: NONE) “active; positive; (structural changes: breaks, fragments)”; (End Point: IN VITRO CHROMOSOMAL ABERRATIONS, Test System: HUMAN PERIPHERAL LYMPHOCYTES, Strain/Sex: MALE, FEMALE, Metabolic Activation: NONE) “active; positive (structural changes)”; (End Point: MICRONUCLEUS, Test System: BONE MARROW, Species: MOUSE, Strain/Sex: SWISS/MALE, FEMALE, Route: INTRAPERITONEAL) “active; positive”.

For the compound `Nc1cccc2cc3ccccc3cc12`, the mutagenic call runs as follows: under setting [3], “inactive; negative”; (Test System: AMES SALMONELLA TYPHIMURIUM, Strain/Indicator: TA98, Metabolic Activation: RAT LIVER, CYTOSOL, AROCLOR 1254, Method: STANDARD PLATE) “inactive; negative”; (Test System: AMES SALMONELLA TYPHIMURIUM, Strain/Indicator: TA98, Metabolic Activation: RAT LIVER, MICROSOMES, AROCLOR 1254, Method: STANDARD PLATE) “active; positive”; (Test System: AMES SALMONELLA TYPHIMURIUM, Strain/Indicator: TA98, Metabolic Activation: RAT, LIVER, S-9, AROCLOR 1254 (2 OR 4%), Method: STANDARD PLATE) “active; positive”; under setting [4], “active; positive”; (Test System: AMES SALMONELLA TYPHIMURIUM, Strain/Indicator: TA98, Metabolic Activation: RAT, LIVER, S-9, PHENOBARBITAL, Method: STANDARD PLATE) “active; positive”. Moreover, the mutagenic call under setting [5] was “inactive; negative”; the mutagenic call (Test System: AMES SALMONELLA TYPHIMURIUM, Strain/Indicator: TA100, Metabolic Activation: RAT, LIVER, S-9, AROCLOR 1254 (2%), Method: STANDARD PLATE) was “inactive; negative”; the mutagenic call under setting [1] is “active; positive”; the mutagenic call under setting [2] was “active; positive”; the mutagenic call (Test System: AMES SALMONELLA TYPHIMURIUM, Strain/Indicator: TA1535, Metabolic Activation: RAT, LIVER, S-9, AROCLOR 1254 (2%), Method: STANDARD PLATE) was “active; positive”; the mutagenic call (Test System: AMES SALMONELLA TYPHIMURIUM, Strain/Indicator: TA1537, Metabolic Activation: RAT, LIVER, S-9, AROCLOR 1254 (2%), Method: STANDARD PLATE) is “active; positive”. Further, the mutagenic call (Test System: MOUSE LYMPHOMA, Strain/Indicator: L5178Y (TK+/TK-), Metabolic Activation: RAT, LIVER, S-9, AROCLOR 1254, Method: SUSPENSION/PLATE) is “active; positive”.

Take `CC(C)C(=O)N=c1sn(C(=O)C(C)C)c2ccc([N+](=O)[O-])cc12`: the mutagenic call (Test System: AMES SALMONELLA TYPHIMURIUM, Strain/Indicator: TA100, Metabolic Activation: S-9, Method: STANDARD PLATE) was “active; positive”.

As to `C/C=C1/C[C@@H](C)[C@](C)(OC(C)=O)C(=O)OC/C2=C/CN(C)CC[C@@H](OC1=O)C2=O`, under “Test System: UDS RAT HEPATOCYTES, Strain/Indicator: THY INCORP, Metabolic Activation: NONE, Method: AUTORADIOGRAPHY”, the mutagenic call was “active; positive”.

On to `C=CCc1ccccc1OCC(O)CNC(C)C` (centres undefined), for which the mutagenic call runs as follows: under setting [3], “inactive; negative”; under setting [4], “inactive; negative”; under setting [5], “inactive; negative”; under setting [1], “inactive; negative”.

Consider `O=[N+]([O-])c1ccc2c(c1)CCc1cc3c(cc1-2)CCc1ccccc1-3`, for which the mutagenic call runs as follows: (Test System: AMES SALMONELLA TYPHIMURIUM, Strain/Indicator: TA98(1,8-DNP6), Metabolic Activation: NONE) “active; positive”; (Test System: AMES SALMONELLA TYPHIMURIUM, Strain/Indicator: TA98(1,8-DNP6), Metabolic Activation: RAT, LIVER, S-9, AROCLOR 1254) “active; positive”; (Test System: AMES SALMONELLA TYPHIMURIUM, Strain/Indicator: TA98(NR), Metabolic Activation: NONE) “active; positive”; (Test System: AMES SALMONELLA TYPHIMURIUM, Strain/Indicator: TA98(NR), Metabolic Activation: RAT, LIVER, S-9, AROCLOR 1254) “active; positive”; (Test System: AMES SALMONELLA TYPHIMURIUM, Strain/Indicator: TA98, Metabolic Activation: NONE) “active; positive”; (Test System: AMES SALMONELLA TYPHIMURIUM, Strain/Indicator: TA98, Metabolic Activation: RAT, LIVER, S-9, AROCLOR 1254) “active; positive”. Also, the mutagenic call is “inactive; negative” (Test System: AMES SALMONELLA TYPHIMURIUM, Strain/Indicator: TA100(NR), Metabolic Activation: NONE); “active; positive” (Test System: AMES SALMONELLA TYPHIMURIUM, Strain/Indicator: TA100(NR), Metabolic Activation: RAT, LIVER, S-9, AROCLOR 1254); “active; positive” (Test System: AMES SALMONELLA TYPHIMURIUM, Strain/Indicator: TA100, Metabolic Activation: NONE); “active; positive” (Test System: AMES SALMONELLA TYPHIMURIUM, Strain/Indicator: TA100, Metabolic Activation: RAT, LIVER, S-9, AROCLOR 1254); “active; positive” (Test System: AMES SALMONELLA TYPHIMURIUM, Strain/Indicator: TA104, Metabolic Activation: NONE); “active; positive” (Test System: AMES SALMONELLA TYPHIMURIUM, Strain/Indicator: TA104, Metabolic Activation: RAT, LIVER, S-9, AROCLOR 1254).
